According to ChEMBL document CHEMBL3217491, “Design, synthesis and biological evaluation of imidazopyridine/pyrimidine-chalcone derivatives as potential anticancer agents” (2010):
Active and inactive are the calls of the source. The calls are words filed in the database; no cut-off is given here.

Columns and labels:
[1] = Growth inhibition of human RXF393 cells after 48 hrs by SRB assay; format: functional; settings: RXF 393, 48 h
M14 = assay: Growth inhibition of human M14 cells after 48 hrs by SRB assay; format: functional; settings: M14, 48 h
Malme-3M = assay: Growth inhibition of human MALME-3M cells after 48 hrs by SRB assay; format: functional
SR = assay: Growth inhibition of human SR cells after 48 hrs by SRB assay; format: functional
K562 = assay: Growth inhibition of human K562 cells after 48 hrs by SRB assay; format: functional; settings: K562, 48 h
MDA-MB-468 = assay: Growth inhibition of human MDA-MB-468 cells after 48 hrs by SRB assay; format: functional; settings: MDA-MB-468, 48 h
MDA-MB-435 = assay: Growth inhibition of human MDA-MB-435 cells after 48 hrs by SRB assay; format: functional; settings: MDA-MB-435, 48 h
[2] = Growth inhibition of human LOXIMVI cells after 48 hrs by SRB assay; format: functional; settings: LOX IMVI
RPMI-8226 = assay: Growth inhibition of human RPMI8226 cells after 48 hrs by SRB assay; format: functional; settings: RPMI-8226, 48 h
SNB-19 = assay: Growth inhibition of human SNB19 cells after 48 hrs by SRB assay; format: functional; settings: SNB-19, 48 h
[3] = Growth inhibition of human OVCAR5 cells after 48 hrs by SRB assay; format: functional; settings: OVCAR-5, 48 h
KM12 = assay: Growth inhibition of human KM12 cells after 48 hrs by SRB assay; format: functional; settings: KM12, 48 h
NCI-H226 = assay: Growth inhibition of human NCI-H226 cells after 48 hrs by SRB assay; format: functional; settings: NCI-H226, 48 h
[4] = Growth inhibition of human HCC2998 cells after 48 hrs by SRB assay; format: functional; settings: HCC 2998, 48 h
HT-29 = assay: Growth inhibition of human HT-29 cells after 48 hrs by SRB assay; format: functional; settings: HT-29, 48 h
T47D = assay: Growth inhibition of human T47D cells after 48 hrs by SRB assay; format: functional
CCRF-CEM = assay: Growth inhibition of human CCRF-CEM cells after 48 hrs by SRB assay; format: functional
[5] = Growth inhibition of human UACC257 cells after 48 hrs by SRB assay; format: functional; settings: UACC-257, 48 h
NCI-H322M = assay: Growth inhibition of human NCI-H322M cells after 48 hrs by SRB assay; format: functional
[6] = Growth inhibition of human MOLT4 cells after 48 hrs by SRB assay; format: functional; settings: MOLT-4, 48 h
IGROV-1 = assay: Growth inhibition of human IGROV1 cells after 48 hrs by SRB assay; format: functional; settings: IGROV-1, 48 h
NCI-H23 = assay: Growth inhibition of human NCI-H23 cells after 48 hrs by SRB assay; format: functional; settings: NCI-H23, 48 h
[7] = Growth inhibition of human BT549 cells after 48 hrs by SRB assay; format: functional; settings: BT-549, 48 h
MCF7 [8] = assay: Growth inhibition of human MCF7 cells after 48 hrs by SRB assay; format: functional; settings: MCF7, 48 h
SK-MEL-5 = assay: Growth inhibition of human SK-MEL-5 cells after 48 hrs by SRB assay; format: functional; settings: SK-MEL-5, 48 h
CAKI-1 = assay: Growth inhibition of human Caki1 cells after 48 hrs by SRB assay; format: functional; settings: CAKI-1, 48 h
[9] = Growth inhibition of human OVCAR3 cells after 48 hrs by SRB assay; format: functional; settings: OVCAR-3, 48 h
HL-60(TB) = assay: Growth inhibition of human HL-60(TB) cells after 48 hrs by SRB assay; format: functional; settings: HL-60, 48 h
[10] = Growth inhibition of human UACC62 cells after 48 hrs by SRB assay; format: functional; settings: UACC-62, 48 h
TK-10 = assay: Growth inhibition of human TK10 cells after 48 hrs by SRB assay; format: functional; settings: TK-10, 48 h
ACHN = assay: Growth inhibition of human ACHN cells after 48 hrs by SRB assay; format: functional
[11] = Growth inhibition of human EKVX cells after 48 hrs by SRB assay; format: functional
MCF7 [12] = assay: Growth inhibition of human MCF7 cells assessed as cell viability at 4 uM after 24 hrs by MTT assay; format: functional, cell-based
[13] = Growth inhibition of human OVCAR8 cells after 48 hrs by SRB assay; format: functional; settings: OVCAR-8, 48 h
[14] = Growth inhibition of human HCT15 cells after 48 hrs by SRB assay; format: functional; settings: HCT-15, 48 h
MCF7 [15] = assay: Cell cycle arrest in human MCF7 cells assessed as accumulation at S phase at 4 uM after 24 hrs by propidium iodide staining-based flow cytometry (reference value: 20.17%); format: functional
SK-MEL-2 = assay: Growth inhibition of human SK-MEL-2 cells after 48 hrs by SRB assay; format: functional; settings: SK-MEL-2, 48 h
DU-145 = assay: Growth inhibition of human DU145 cells after 48 hrs by SRB assay; format: functional; settings: DU-145, 48 h
SF-268 = assay: Growth inhibition of human SF268 cells after 48 hrs by SRB assay; format: functional; settings: SF-268, 48 h
PC-3 = assay: Growth inhibition of human PC3 cells after 48 hrs by SRB assay; format: functional; settings: PC-3, 48 h
U-251 = assay: Growth inhibition of human U251 cells after 48 hrs by SRB assay; format: functional; settings: U-251, 48 h
COLO 205 = assay: Growth inhibition of human COLO205 cells after 48 hrs by SRB assay; format: functional; settings: COLO 205, 48 h
[16] = Growth inhibition of human SF295 cells after 48 hrs by SRB assay; format: functional; settings: SF-295, 48 h
HOP-62 = assay: Growth inhibition of human HOP62 cells after 48 hrs by SRB assay; format: functional; settings: HOP-62, 48 h
[17] = Growth inhibition of human SF539 cells after 48 hrs by SRB assay; format: functional; settings: SF-539, 48 h
A549 = assay: Growth inhibition of human A549 cells after 48 hrs by SRB assay; format: functional; settings: A549, 48 h
MCF7 [18] = assay: Cell cycle arrest in human MCF7 cells assessed as accumulation at G2/M phase at 4 uM after 24 hrs by propidium iodide staining-based flow cytometry (reference value: 15.79%); format: functional
[19] = Growth inhibition of human UO31 cells after 48 hrs by SRB assay; format: functional; settings: UO-31, 48 h
SW-620 = assay: Growth inhibition of human SW620 cells after 48 hrs by SRB assay; format: functional; settings: SW-620, 48 h
NCI-H460 = assay: Growth inhibition of human NCI-H460 cells after 48 hrs by SRB assay; format: functional; settings: NCI-H460, 48 h
SK-OV-3 = assay: Growth inhibition of human SKOV3 cells after 48 hrs by SRB assay; format: functional; settings: SK-OV-3, 48 h
[20] = Growth inhibition of human HOP92 cells after 48 hrs by SRB assay; format: functional; settings: HOP-92, 48 h
SNB-75 = assay: Growth inhibition of human SNB75 cells after 48 hrs by SRB assay; format: functional; settings: SNB-75, 48 h
HCT-116 = assay: Growth inhibition of human HCT116 cells after 48 hrs by SRB assay; format: functional; settings: HCT-116, 48 h
786-0 = assay: Growth inhibition of human 786-0 cells after 48 hrs by SRB assay; format: functional; settings: 786-0, 48 h
A498 = assay: Growth inhibition of human A498 cells after 48 hrs by SRB assay; format: functional; settings: A498, 48 h
[21] = Growth inhibition of human OVCAR4 cells after 48 hrs by SRB assay; format: functional; settings: OVCAR-4, 48 h
MCF7 [22] = assay: Cell cycle arrest in human MCF7 cells assessed as accumulation at G0/G1 phase at 4 uM after 24 hrs by propidium iodide staining-based flow cytometry (reference value: 64.04%); format: functional
SK-MEL-28 = assay: Growth inhibition of human SK-MEL-28 cells after 48 hrs by SRB assay; format: functional; settings: SK-MEL-28, 48 h
[23] = Growth inhibition of human Hs578T cells after 48 hrs by SRB assay; format: functional; settings: Hs-578T
SN12C = assay: Growth inhibition of human SN12C cells after 48 hrs by SRB assay; format: functional
NCI-H522 = assay: Growth inhibition of human NCI-H522 cells after 48 hrs by SRB assay; format: functional; settings: NCI-H522, 48 h
[24] = Growth inhibition of human NCI-ADR-RES cells after 48 hrs by SRB assay; format: functional
MDA-MB-231 = assay: Growth inhibition of human MDA-MB-231 cells after 48 hrs by SRB assay; format: functional; settings: MDA-MB-231, 48 h

`COc1cc(C(=O)/C=C/c2c(C(F)(F)F)nc3ccccn23)cc(OC)c1OC` showed a GI50 [1] of 1.87 µM, a GI50 (M14) of 1.82 µM and a GI50 (Malme-3M) of 1.57 µM. The GI50 (SR) was 2.91 µM, the GI50 (K562) was 2.83 µM and the GI50 (MDA-MB-468) was 2.12 µM. For the same compound, the GI50 (MDA-MB-435) was 2.26 µM, the GI50 [2] was 1.66 µM and the GI50 (RPMI-8226) was 1.98 µM. The GI50 (SNB-19) was 1.93 µM, the GI50 [3] was 1.98 µM and the GI50 (KM12) was 1.73 µM. It also gave a GI50 (NCI-H226) of 3.55 µM, a GI50 [4] of 1.83 µM and a GI50 (HT-29) of 1.93 µM. For the same compound, the GI50 (T47D) was 3.52 µM, the GI50 (CCRF-CEM) was 4.15 µM and the GI50 [5] was 1.66 µM. It also gave a GI50 (NCI-H322M) of 1.66 µM, a GI50 [6] of 3.73 µM and a GI50 (IGROV-1) of 2.23 µM. For the same compound, the GI50 (NCI-H23) was 1.51 µM, the GI50 [7] was 1.64 µM and the GI50 (MCF7 [8]) was 1.44 µM. The GI50 (SK-MEL-5) was 1.62 µM, the GI50 (CAKI-1) was 1.82 µM and the GI50 [9] was 1.83 µM. The GI50 (HL-60(TB)) was 4.12 µM, the GI50 [10] was 2.05 µM and the GI50 (TK-10) was 2.09 µM. The GI50 (ACHN) was 1.95 µM, the GI50 [11] was 2.37 µM and the inhibition (MCF7 [12]) was “Active”. The GI50 [13] was 3.39 µM, the GI50 [14] was 2.1 µM and the Activity (MCF7 [15]) was 4.1%. For the same compound, the GI50 (SK-MEL-2) was 2.43 µM, the GI50 (DU-145) was 1.61 µM and the GI50 (SF-268) was 1.64 µM. The GI50 (PC-3) was 3.8 µM, the GI50 (U-251) was 1.29 µM and the GI50 (COLO 205) was 2.11 µM. For the same compound, the GI50 [16] was 1.99 µM, the GI50 (HOP-62) was 2.97 µM and the GI50 [17] was 1.63 µM. For the same compound, the GI50 (A549) was 4.04 µM, the Activity (MCF7 [18]) was 0.66% and the GI50 [19] was 1.49 µM. For the same compound, the GI50 (SW-620) was 1.68 µM, the GI50 (NCI-H460) was 2.01 µM and the GI50 (SK-OV-3) was 4.04 µM. It also gave a GI50 [20] of 2.65 µM, a GI50 (SNB-75) of 1.76 µM and a GI50 (HCT-116) of 1.26 µM. It also gave a GI50 (786-0) of 1.72 µM, a GI50 (A498) of 2.4 µM and a GI50 [21] of 4.1 µM. For the same compound, the Activity (MCF7 [22]) was 95.24%, the GI50 (SK-MEL-28) was 1.93 µM and the GI50 [23] was 3.27 µM. It also gave a GI50 (SN12C) of 2.09 µM, a GI50 (NCI-H522) of 1.77 µM and a GI50 [24] of 1.41 µM. The GI50 (MDA-MB-231) was 4.59 µM.
